The subject of this experiment is skin keratinocyte cell line HaCaT. Kind of experiment: Resazurin assay of HaCaT keratinocyte cell proliferation and viability. Format: cell-based, human. As to conditions: Example 2, 24 hours, Calcipotriol alone 10 μM, FIG. 2. On the procedure:
The spontaneously immortalized, nontumorigenic skin keratinocyte cell line HaCaT was maintained in DMEM supplemented with 5% (v/v) FBS, 0.3 mg/ml glutamine and 0.1 mg/ml gentamicin at 37° C. with 5% CO2 in a humidified atmosphere. Subculture using trypsin-EDTA was performed every 3-4 days with split ratio of 1:3-1:4 to ensure actively proliferating cells.
Cells were seeded in 96 well plates in fully supplemented medium at a density of 2500 cells per well. Following 72 hours of cultivation, the cells were starved of serum in 0.25% FBS/DMEM overnight to halt proliferation, synchronize the cells and to increase cell sensitivity to treatment. On day 4, the cells were treated with cPLA2a inhibitor Compound A and corticosteroid Betamethasone 17, 21-dipropionate (Sigma Aldrich # B1152) and left to incubate for […] in incubator at 37° C. with 5% CO2 in a humidified atmosphere before fluorescence was read at 544 nm excitation and 590 nm emission wavelength. […]
Cells were seeded in 96 well plates in fully supplemented medium at a density of 2500 cells per well. […] On day 5, resazurin was added according to the manufacturer's instruction (RnD Systems, UK) and left to incubate for 2 hour incubator at 37° C. with 5% CO2 in a humidified atmosphere before fluorescence was read at 544 nm excitation and 590 nm emission wavelength. […]
On the technique in general: The colour change of resazurin is a common sign of viable cells or microbes.

`C=C1/C(=C\C=C2/CCC[C@]3(C)[C@@H]([C@H](C)/C=C/[C@@H](O)C4CC4)CC[C@@H]23)C[C@@H](O)C[C@@H]1O` [Calcipotriol, Calcipotriol hydrate]: the “reduction of cell proliferation” value was found to be 20%.

The values are drawn from patent publication US20200330399A1, “COMBINATION THERAPY COMPRISING A POLYUNSATURATED KETONE AND A CORTICOSTEROID” (priority 2016, published 2020).
